According to publication PMC9405123, “Design, Synthesis and Mechanistic Studies of Novel Isatin-Pyrazole Hydrazone Conjugates as Selective and Potent Bacterial MetAP Inhibitors” (Antibiotics, 2022):
In brackets after ≈: the same amount, converted by molar mass.

Test system: E. coli
Test: Minimum inhibitory concentration (broth dilution)
Format: cell-based, Escherichia coli
Settings: Escherichia coli, alone, read-out: MIC

## O=C1Nc2ccc(F)cc2/C1=N\NC(=O)c1cc(-c2cccc(Br)c2)n[nH]1 [PS9, (E)-3-(3-Bromophenyl)-N′-(5-Fluoro-2-Oxoindolin-3-Ylidene)-1H-Pyrazole-5-Carbohydrazide]
  MIC: 16 µg/mL (≈ 37.4 µM)
